Measurements reported in patent US4791215A, “Derivatives of glutamic acid and aspartic acid” (priority 1984, dated 1988).

Assays:
[1] = system: morphine analgesia; experiment: Increase in analgesia of morphine, Tail Flick Test (Experiment 1); format: in vivo, rats; settings: for percentage variation of latency of pain sensation / M (10-90) ± SE, mean percentage variation of latency: compound 10 mg/kg i.p. + morphine 2 mg/kg; for M (10-90) ± SE, mean percentage variation of latency: mean 10-90 min; for Power ratio with respect to morphine alone: rat, in vivo
Outline: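 Non-fasted male rats (150-200 g); a tail point is exposed to a 75 °C heat source and latency to tail movement recorded, 8 s cut-off. Readings taken before and 10, 20, 30, 45, 60 and 90 min after analgesic treatment; percentage variation calculated per animal.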

[2] = system: endogenous opiates analgesia; experiment: Analgesic activity of endogenous opiates released by transcutaneous shock, Tail Flick Test (Experiment 3); format: in vivo, rats
Description: Experiment No. 3: Influence of several of the compounds of the invention on the analgesic activities of endogenous opiates released by transcutaneous shock in rats and measured by the Tail Flick Test
The method is that described by Lewis et al. J. Neurosc. 1, 358 […]. Male rats which have not fasted and have a weight of about 200 g are used.
The animals are stressed by the application of a 60 Hz-2.5 mA current to the front leg in pulses of a duration of 1 second every 5 seconds for 20 minutes.
This stress regime induces the release of endogenous opiates.

[3] = system: CCK-8 induced contraction of guinea pig gall bladder; experiment: Anti-CCK activity on gall bladder strips in vitro; settings: CCK-8 10 ng/ml
Outline: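 Longitudinal guinea pig gall bladder strips in Krebs at 32 °C, gassed with O2/CO2 95:5, were contracted with 10 ng/ml CCK-8. Isometric force was recorded across several compound concentrations, and ED50 was taken as the μg/ml concentration antagonising 50% of the CCK contraction.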

[4] = system: enkephalinamide (DALA) analgesia; experiment: Potentiation of DALA (enkephalinamide) analgesia, i.c.v., Tail Flick Test (Experiment 4); format: in vivo, rats; design: scale not given here
Description: Experiment No. 4: Potentiation of the analgesic activities of enkephalins induced by some of the compounds of the invention. […]

[5] = compound 1 mg/kg iv + stress, 5'
[6] = compound 1 mg/kg iv + stress, 10'
[7] = compound 1 mg/kg iv + stress, 15'
[8] = compound 3 mg/kg iv + stress, 5'
[9] = compound 3 mg/kg iv + stress, 10'
[10] = compound 3 mg/kg iv + stress, 15'

| Structure (SMILES) | percentage variation of latency of pain sensation ([1]; 10') | percentage variation of latency of pain sensation ([1]; 20') | percentage variation of latency of pain sensation ([1]; 30') | percentage variation of latency of pain sensation ([1]; 45') | percentage variation of latency of pain sensation ([1]; 60') | percentage variation of latency of pain sensation ([1]; 90') | M (10-90) ± SE, mean percentage variation of latency [1] | Power ratio with respect to morphine alone [1] | ED50 (concentration antagonising 50% of contracting effect of CCK-8) [3] | further results |
| --- | --- | --- | --- | --- | --- | --- | --- | --- | --- | --- |
| CC(C)c1ccc(C(=O)NC(CCC(=O)N2CCCCC2)C(=O)O)cc1 (racemic) [Compound D-17] | 62.3 ± 15% | 92.9 ± 7% | 100 ± 0% | 100 ± 0% | 100 ± 0% | 100 ± 0% | 92.5 ± 15% | 3.10 | > 300 mg/L | average latency, Tail Flick [2, 5]: 6.18 ± 0.65 s; average latency, Tail Flick [2, 6]: 7.02 ± 0.76 s; average latency, Tail Flick [2, 7]: 5.31 ± 0.55 s; average latency, Tail Flick [2, 8]: 9.08 ± 0.55 s; average latency, Tail Flick [2, 9]: 9.08 ± 0.80 s; average latency, Tail Flick [2, 10]: 6.08 ± 0.98 s |
| CCCCNC(=O)CC(NC(=O)c1ccc(Cl)c(Cl)c1)C(=O)O [Compound D-3] | 63.8 ± 17.0% | 79.9 ± 13.0% | 100.0 ± 0.0% | 58.6 ± 18.0% | 33.8 ± 18.0% | 32.9 ± 10.0% | 61.5% | 2.06 | > 200 mg/L | – |
| CCCCN(CCCC)C(=O)C(CCC(=O)O)NC(=O)c1cc(Cl)c(Cl)c(Cl)c1 (stereo not shown) [Compound C-11] | 25.2 ± 4.0% | 37.6 ± 16.0% | 50.9 ± 11.0% | 54.4 ± 9.0% | 35.8% | 18.7 ± 10.0% | 37.1 ± 14.0% | 1.24 | 0.85 mg/L | – |
| CCCN(CCC)C(=O)C(CCC(=O)O)NC(=O)c1cccc(Cl)c1 (stereo not shown) [Compound C-2] | 27.8 ± 13.0% | 43.8 ± 25.0% | 67.5 ± 20.0% | 64.2% | 74.4 ± 16.0% | 57.3 ± 19.0% | 55.8 ± 17.0% | 1.87 | > 200 mg/L | – |
| CCCN(CCC)C(=O)C(CCC(=O)O)NC(=O)c1ccccc1Br (stereo not shown) [Compound C-14] | 36.5 ± 28.4% | 76.0 ± 12.7% | 79.3 ± 10.6% | 77.0 ± 6.7% | 98.3 ± 1.3% | 71.9 ± 13.2% | 73.1 ± 20.0% | 2.45 | 118.4 mg/L | – |
| N#Cc1cccc(C(=O)NC(CC(=O)O)C(=O)NC2CCCCC2)c1 (stereo not shown) [Compound C-23] | 33.1 ± 19.0% | 49.9 ± 15.0% | 58.2 ± 17.0% | 68.3 ± 20.0% | 72.0% | 58.7 ± 22.0% | 56.7 ± 14.0% | 1.90 | > 200 mg/L | – |
| CSCC[C@H](NC(=O)[C@H](Cc1ccccc1)NC(=O)CNC(=O)[C@@H](C)NC(=O)[C@@H](N)Cc1ccc(O)cc1)C(N)=O [DALA, D-ala-methionine-enkephalinamide, reference compound] | – | – | – | – | – | – | – | – | – | analgesic activity, Tail Flick ([4]; DALA 10 μg/kg ICV alone, 10'): 21.9; analgesic activity, Tail Flick ([4]; DALA 10 μg/kg ICV alone, 20'): 25.9; analgesic activity, Tail Flick ([4]; DALA 10 μg/kg ICV alone, 30'): 26.2; analgesic activity, Tail Flick ([4]; DALA 10 μg/kg ICV alone, 45'): 26.0; analgesic activity, Tail Flick ([4]; DALA 10 μg/kg ICV alone, 60'): 7.3; analgesic activity, Tail Flick ([4]; DALA 10 μg/kg ICV alone, 90'): 5.0; MEAN analgesic activity, Tail Flick ([4]; DALA 10 μg/kg ICV alone): 18.7; analgesic activity, Tail Flick ([4]; DALA 10 mg/kg (ICV) as printed, alone, 10'): 4.1; analgesic activity, Tail Flick ([4]; DALA 10 mg/kg (ICV) as printed, alone, 20'): 6.24; analgesic activity, Tail Flick ([4]; DALA 10 mg/kg (ICV) as printed, alone, 30'): 9.19; analgesic activity, Tail Flick ([4]; DALA 10 mg/kg (ICV) as printed, alone, 45'): 8.29; analgesic activity, Tail Flick ([4]; DALA 10 mg/kg (ICV) as printed, alone, 60'): 6.20; analgesic activity, Tail Flick ([4]; DALA 10 mg/kg (ICV) as printed, alone, 90'): 10.56; MEAN analgesic activity, Tail Flick ([4]; DALA 10 mg/kg (ICV) as printed, alone): 7.51 |
| CCCCN(CCCC)C(=O)C(CCC(=O)O)NC(=O)c1ccc(Br)cc1 (stereo not shown) [Compound C-25] | 59.7 ± 15.0% | 49.0 ± 13.0% | 71.5% | 61.9 ± 22.0% | 49.0 ± 22.0% | 20.4 ± 6.0% | 51.9 ± 18.0% | 1.74 | 30.3 mg/L | – |
| CCCN(CCC)C(=O)C(CCC(=O)O)NC(=O)c1ccc(C(F)(F)F)cc1 (stereo not shown) [Compound C-39] | 44.9 ± 15% | 100.0 ± 0% | 93.3 ± 7% | 94.4 ± 6% | 85.6 ± 7% | 81.8 ± 10% | 83.3 ± 20% | 2.79 | – | average latency, Tail Flick [2, 5]: 6.3 ± 0.4 s; average latency, Tail Flick [2, 6]: 5.8 ± 0.38 s; average latency, Tail Flick [2, 7]: 4.04 ± 0.36 s; average latency, Tail Flick [2, 8]: 7.54 ± 0.65 s; average latency, Tail Flick [2, 9]: 5.98 ± 0.41 s; average latency, Tail Flick [2, 10]: 5.08 ± 0.6 s |
| CCCCN(CCCC)C(=O)C(CCC(=O)O)NC(=O)c1ccc(Cl)cc1Cl (stereo not shown) [Compound C-10] | 56.9 ± 25.8% | 66.4 ± 21.4% | 72.9% | 70.1 ± 18.5% | 66.2 ± 21.3% | 63.2 ± 23.4% | 66.0 ± 5.6% | 2.21 | 43.7 mg/L | – |
| O=C(NC(CCC(=O)N1CCOCC1)C(=O)O)c1ccc(Br)cc1 [Compound D-6] | 31.2 ± 22.0% | 45.8 ± 23.0% | 50.7% | 44.5 ± 24.0% | 45.3 ± 24.0% | 28.2 ± 19.0% | 41.0 ± 9.0% | 1.37 | > 200 mg/L | – |
| N#Cc1ccc(C(=O)NC(CCC(=O)N2CCCCC2)C(=O)O)cc1 [Compound D-10] | 41.0 ± 8.0% | 58.6 ± 17.0% | 59.8 ± 17.0% | 62.7 ± 15.0% | 47.0% | 35.4 ± 11.0% | 50.8 ± 11.2% | 1.70 | > 200 mg/L | – |
| CCCN(CCC)C(=O)CCC(NC(=O)c1ccc(C)c(C)c1)C(=O)O [Compound D-15] | 43.5 ± 16% | 48.7 ± 18% | 72.6% | 60.1 ± 23% | 59.2 ± 18% | 43.5 ± 24% | 54.6 ± 11% | 1.83 | 245.0 mg/L | – |
